Test results reported in patent publication US10421782B2, “Cyclic cationic peptides with antimicrobial activity” (I.C.F. S.R.L., priority 2012, dated 2019).
Values joined by “and” are separate entries in the source; they are usually repeats but may differ in a detail not shown here. Equal entries are not always repeated.

Columns and labels:
S. aureus ATCC 25923 = test: Broth-microdilution test and subsequent plating on agar, Gram-positive bacteria; type: cell-based, Staphylococcus aureus; conditions: meticillin-sensitive, 2 h contact at 37° C., CFU count after 24 h
Experimental: (§1) For each bacterial strain, 3-5 morphologically similar colonies were drawn from fresh cultures, inoculated in Brain Hearth Infusion broth liquid medium and incubated at the temperature of 37° C. under shaking at 225 r.p.m. for 3-4 h. Subsequently, the bacterial suspension was centrifuged at 1000 g for 20 min and the thus obtained pellet was resuspended in phosphate buffer 10 mM. Turbidity was measured in a spectrophotometer with absorbance at 600 nm, equivalent in the range 0.08-0.13 to a concentration of about 10^8 CFU/ml. The bacterial suspension was diluted 1:100 in phosphate buffer 10 mM, and within 30 min, 50 microliters of such bacterial suspension (10^6 CFU/ml) were inoculated in each well of the microtiter plate, to obtain a final bacterial concentration of about 5×10^5 CFU/ml.
(§2) Several synthetic peptides were tested for their ability to inhibit bacterial growth. Fifty microliters of peptide at a concentration comprised between about 0.2 mM and about 50 mM were added to 96-well U-bottom plates containing phosphate buffer and one of the following bacteria: S. aureus ATCC 25923, meticillin-resistant S. aureus ATCC 43300. After 2 hour incubation at 37° C., bacteria were transferred on a solid medium. As a control, the bacterial cultures were cultured in the absence of peptide.
(§3) The bacterial suspension was put in contact for two hours with different concentrations of the peptide at the temperature of 37° C. After incubation, 20 μl were drawn from the wells of each dilution and seeded on solid medium, Columbia agar supplemented with 5% bovine red blood cells for Gram-positive bacteria. The inoculum was evenly distributed on the agarized medium by means of a sterile disposable loop. After incubation for 24 hours at the temperature of 37° C., counting of the bacterial colonies (CFU) was performed.

[1] = tested on: meticillin-resistant S. aureus ATCC 43300; test: as above; type: cell-based, Staphylococcus aureus; conditions: 2 h contact at 37° C., CFU count after 24 h
Experimental: as §1, §2, §3

SMILES: CC[C@H](C)[C@@H]1NC(=O)[C@H](CCCCN)NC(=O)[C@H](C)NC(=O)[C@@H](NC(=O)[C@H](CCCCN)NC(=O)[C@@H](N)Cc2c[nH]cn2)CSSC[C@@H](C(=O)N[C@@H](C)C(=O)O)NC(=O)[C@H](Cc2ccc(O)cc2)NC(=O)[C@H](CCCCN)NC(=O)[C@H](C(C)C)NC(=O)[C@H](Cc2c[nH]cn2)NC(=O)[C@H](C(C)C)NC(=O)CNC(=O)[C@H](CCCNC(=N)N)NC(=O)[C@H](Cc2c[nH]c3ccccc23)NC(=O)[C@H](CCCCN)NC1=O (relative stereo) [Peptide P2041, HIS*LYS*CYS*ALA*LYS*ILE*LYS*TRP*ARG*GLY*VAL*HIS*VAL*LYS*TYR*CYS*ALA]
- LD90 S. aureus ATCC 25923 (S. aureus ATCC 25923): 1.42 µM
- LD90 S. aureus ATCC 25923 (S. aureus ATCC 25923; listed as 2041): 1.42 μM and 2.89 μg/ml
- LD90 MRSA ATCC 43300 [1]: 0.85 µM
- LD90 MRSA ATCC 43300 ([1]; listed as 2041): 0.85 μM and 1.72 μg/ml
